Reference: ChEMBL document CHEMBL1149760, “Chemoenzymatic synthesis and antimicrobial activity evaluation of monogalactosyl diglycerides” (2008)

Assays:
Format in all cases: functional
Staphylococcus aureus [1] = experiment: Antimicrobial activity against Staphylococcus aureus ATCC 105487 by agar dilution method
[2] = system: Mycobacterium tuberculosis; experiment: Antimicrobial activity against Mycobacterium tuberculosis H190 by agar dilution method
Escherichia coli = experiment: Antimicrobial activity against Escherichia coli ATCC 25922 by agar dilution method
Candida albicans = experiment: Antifungal activity against Candida albicans by agar dilution method
Staphylococcus aureus [3] = experiment: Antimicrobial activity against Staphylococcus aureus SA87 by agar dilution method
Bacillus subtilis = experiment: Antimicrobial activity against Bacillus subtilis ATCC 6633 by agar dilution method
[4] = system: Mycobacterium tuberculosis; experiment: Antimicrobial activity against Mycobacterium tuberculosis H160 by agar dilution method
Kluyveromyces marxianus = experiment: Antifungal activity against Candida pseudotropicalis by agar dilution method
Pseudomonas aeruginosa = experiment: Antimicrobial activity against Pseudomonas aeruginosa ATCC 27753 by agar dilution method
Enterococcus faecalis = experiment: Antimicrobial activity against Enterococcus faecalis ATCC 29212 by agar dilution method
[5] = system: Mycobacterium tuberculosis; experiment: Antimicrobial activity against Mycobacterium tuberculosis H37Rv by agar dilution method
Staphylococcus aureus [6] = experiment: Antimicrobial activity against Staphylococcus aureus ATCC 25923 by agar dilution method
Staphylococcus aureus [7] = experiment: Antimicrobial activity against Staphylococcus aureus SA52 by agar dilution method
Staphylococcus aureus [8] = experiment: Antimicrobial activity against Staphylococcus aureus SA85 by agar dilution method

| Structure (SMILES) | MIC (Staphylococcus aureus [1]) [µg/mL] | MIC [2] [µg/mL] | MIC (Escherichia coli) [µg/mL] | MIC (Candida albicans) [µg/mL] | MIC (Staphylococcus aureus [3]) [µg/mL] | MIC (Bacillus subtilis) [µg/mL] | MIC [4] [µg/mL] | MIC (Kluyveromyces marxianus) [µg/mL] | MIC (Pseudomonas aeruginosa) [µg/mL] | MIC (Enterococcus faecalis) [µg/mL] | MIC [5] [µg/mL] | MIC (Staphylococcus aureus [6]) [µg/mL] | MIC (Staphylococcus aureus [7]) [µg/mL] | MIC (Staphylococcus aureus [8]) [µg/mL] |
| --- | --- | --- | --- | --- | --- | --- | --- | --- | --- | --- | --- | --- | --- | --- |
| CC/C=C/C/C=C/C/C=C/CCCCCCCC(=O)OCC(CO[C@@H]1O[C@H](CO)[C@H](O)[C@H](O)[C@H]1O)OC(=O)CCCCCCC/C=C/C/C=C/C/C=C/CC (mixture of isomers) | > 128 | > 128 | > 128 | > 128 | > 128 | > 128 | > 128 | > 128 | > 128 | > 128 | > 128 | 128 | > 128 | > 128 |
| CCCCCCCC/C=C/CCCCCCCC(=O)OCC(CO[C@@H]1O[C@H](CO)[C@H](O)[C@H](O)[C@H]1O)OC(=O)CCCCCCC/C=C/CCCCCCCC (mixture of isomers) | > 128 | > 128 | > 128 | > 128 | > 128 | > 128 | > 128 | > 128 | > 128 | > 128 | > 128 | > 128 | > 128 | > 128 |
| CCCCCCCC/C=C/CCCCCCCC(=O)OC(COC(=O)CCCCCCCCC)CO[C@@H]1O[C@H](CO)[C@H](O)[C@H](O)[C@H]1O (mixture of isomers) | > 128 | > 128 | > 128 | > 128 | > 128 | 32 | > 128 | > 128 | > 128 | > 128 | > 128 | 128 | > 128 | 128 |
| CC/C=C/C/C=C/C/C=C/CCCCCCCC(=O)OC(COC(=O)CCCCCCCCC)CO[C@@H]1O[C@H](CO)[C@H](O)[C@H](O)[C@H]1O (mixture of isomers) | > 128 | > 128 | > 128 | > 128 | 32 | > 128 | > 128 | > 128 | > 128 | > 128 | > 128 | > 128 | > 128 | 64 |
| CCCCCCCC/C=C/CCCCCCCC(=O)OC(COC(=O)CCCCCCC)CO[C@@H]1O[C@H](CO)[C@H](O)[C@H](O)[C@H]1O (mixture of isomers) | > 128 | 64 | > 128 | > 128 | 64 | 128 | 64 | > 128 | > 128 | > 128 | 128 | > 128 | > 128 | > 128 |
| CCCCC/C=C/C/C=C/CCCCCCCC(=O)OCC(CO[C@@H]1O[C@H](CO)[C@H](O)[C@H](O)[C@H]1O)OC(=O)CCCCCCC/C=C/C/C=C/CCCCC (mixture of isomers) | > 128 | 128 | > 128 | > 128 | 128 | 128 | 128 | > 128 | > 128 | > 128 | 128 | > 128 | > 128 | > 128 |
| CCCCC/C=C/C/C=C/CCCCCCCC(=O)OC(COC(=O)CCCCCCCCC)CO[C@@H]1O[C@H](CO)[C@H](O)[C@H](O)[C@H]1O (mixture of isomers) | 64 | > 128 | > 128 | > 128 | 64 | 128 | > 128 | > 128 | > 128 | 128 | > 128 | > 128 | > 128 | 64 |
| CCCCC/C=C/C/C=C/CCCCCCCC(=O)OC(COC(=O)CCCCCCC)CO[C@@H]1O[C@H](CO)[C@H](O)[C@H](O)[C@H]1O (mixture of isomers) | > 128 | 128 | > 128 | > 128 | 128 | 128 | 64 | > 128 | > 128 | > 128 | 64 | > 128 | > 128 | > 128 |
| CC/C=C/C/C=C/C/C=C/CCCCCCCC(=O)OC(COC(=O)CCCCCCC)CO[C@@H]1O[C@H](CO)[C@H](O)[C@H](O)[C@H]1O (mixture of isomers) | > 128 | 128 | > 128 | > 128 | 64 | 128 | 128 | > 128 | > 128 | > 128 | 128 | > 128 | > 128 | > 128 |
